Results published in ChEMBL document CHEMBL4651402, “Screening of ~5500 FDA-approved drugs and clinical candidates for anti-SARS-CoV-2 activity” (2021).
pIC50: −log10 of the molar value.

Assays:
[1] = system: SARS-CoV-2; experiment: microbe, parasite or virus in culture; settings: Severe acute respiratory syndrome coronavirus 2, Vero C1008, 48 h; for IC50: read-out: pIC50 (converted)
[2] = in vitro; settings: chlorocebus sabaeus, Vero E6 (Vero C1008) cells
[3] = system: SARS-CoV-2; experiment: microbe, parasite or virus in culture; format: functional, organism-based, Chlorocebus sabaeus, Vero C1008; settings: Severe acute respiratory syndrome coronavirus 2, Vero C1008, 48 h; for pIC50: read-out: IC50; for IC50: read-out: pIC50 (converted)

SMILES	pIC50 [1]	IC50 [1] [µM]	CC50 at 48 h ([2]; CC50) [µM]	CC50 at 48 h ([2]; pCC50) [µM]	pIC50 [3]	IC50 [3] [µM]
COc1ccccc1N1CCN(CCCCNC(=O)c2ccc3ccccc3c2)CC1 [BP-897]	< 4.60	> 25.1	30.2	30.2	< 4.60	> 25.1
O=c1ccc2ccc(OCCCCN3CCN(c4cccc5sccc45)CC3)cc2[nH]1 [BREXPIPRAZOLE]	< 4.00	> 100	12	12	< 4.00	> 100
COc1cc(Br)c2oc(C3CCNCC3)cc2c1 [BROFAROMINE]	4.83	14.8	19.1	19.1	< 4.00	> 100
CC(C)(Cc1c[nH]c2ccccc12)NCC(O)COc1ccccc1C#N (centres undefined) [BUCINDOLOL]	4.77	17	30.9	30.9	< 4.00	> 100
CC(C)(C)c1ccc(CN2CCN(C(c3ccccc3)c3ccc(Cl)cc3)CC2)cc1 (centres undefined) [BUCLIZINE]	< 4.00	> 100	81.3	81.3	4.69	20.4
CCCCN(CCCC)CCCOc1ccc(C(=O)c2c(CC)cc3ccccn23)cc1 [BUTOPROZINE]	< 4.00	> 100	6.61	6.61	< 4.00	> 100
CCC(=O)c1ccc2c(c1)N(CCCN1CCN(CCO)CC1)c1ccccc1S2 [CARPHENAZINE]	< 4.00	> 100	6.31	6.31	< 4.00	> 100
NC(=O)C1(N2CCCCC2)CCN(CCCN2c3ccccc3CCc3ccccc32)CC1 [CARPIPRAMINE]	5.05	8.91	8.61	8.51	< 4.00	> 100
COc1ccccc1OCCNCC(O)COc1cccc2[nH]c3ccccc3c12 (centres undefined) [CARVEDILOL]	4.81	15.5	17	17	5.00	10
CC(=O)N1CCN([C@H]2CCN(C(=O)N(C)[C@H](C)c3cc(C(F)(F)F)cc(C(F)(F)F)c3)[C@@H](c3ccc(F)cc3C)C2)CC1 [CASOPITANT]	< 4.60	> 25.1	17.8	17.8	< 4.60	> 25.1
COc1cc2c(Oc3ccc4[nH]c(C)cc4c3F)ccnc2cc1OCC1(N)CC1 [CATEQUENTINIB]	< 4.00	> 100	5.25	5.25	< 4.00	> 100
Cc1ccccc1CN1CCN(CCOC(c2ccccc2)c2ccccc2Cl)CC1 (centres undefined) [CHLORBENZOXAMINE]	< 4.00	> 100	15.3	15.1	< 4.60	> 25.1
CCN(CC)CCCC(C)Nc1ccnc2cc(Cl)ccc12 (centres undefined) [CHLOROQUINE]	~5.23	~5.89	~38.7	~38.9	~5.02	~9.55
CN(C)CCOC(C)(c1ccccc1)c1ccc(Cl)cc1 (centres undefined) [CHLORPHENOXAMINE]	4.71	19.5	28.2	28.2	~4.84	~14.5
CN(C)CC/C=C1/c2ccccc2Sc2ccc(Cl)cc21 [CHLORPROTHIXENE]	5.15	7.08	13.8	13.8	< 4.00	> 100
Clc1ccc(C(c2ccccc2)N2CCN(C/C=C/c3ccccc3)CC2)cc1 (centres undefined) [CLOCINIZINE]	< 4.00	> 100	21.9	21.9	4.68	20.9
CN1CCC(=C2c3ccccc3Oc3ccc(Cl)cc32)CC1 [CLOPIPAZAN]	< 4.70	> 20	15	14.8	< 4.00	> 100
CCN(CC)CCNC(=O)c1cc(Cl)c(NC(=O)COc2ccc(Cl)cc2)cc1OC [CLOXACEPRIDE]	5.44	3.63	2.85	2.82	< 4.00	> 100
C[C@H]1[C@H]2CC[C@H]3[C@@H]4CC=C5C[C@@H](N(C)C)CC[C@]5(C)[C@H]4CC[C@]23CN1C [CONESSINE]	4.92	12	34.7	34.7	< 4.60	> 25.1
